We go through eight molecules from patent US20250163051A1, “PYRIMIDO AROMATIC RING COMPOUND AND USE THEREOF IN DRUG” (SUNSHINE LAKE PHARMA CO., LTD., priority 2022, published 2025).

One may read the EC50 as the concentration needed to bring the measured effect to its halfway point. As usually defined, the inhibition is how much of the control response was suppressed. For orientation: CC50 means the concentration giving 50% cytotoxicity. High values mean lower toxicity to the cells, low ones greater toxicity to the cells.

The target of one data set is T1, hTLR8 (Homo sapiens, UniProt Q9NR97).
T1 construct: expressed in transfected cells; host or cells: HEK-Blue hTLR8 cells
T1 sequence (Q9NR97 27-1041): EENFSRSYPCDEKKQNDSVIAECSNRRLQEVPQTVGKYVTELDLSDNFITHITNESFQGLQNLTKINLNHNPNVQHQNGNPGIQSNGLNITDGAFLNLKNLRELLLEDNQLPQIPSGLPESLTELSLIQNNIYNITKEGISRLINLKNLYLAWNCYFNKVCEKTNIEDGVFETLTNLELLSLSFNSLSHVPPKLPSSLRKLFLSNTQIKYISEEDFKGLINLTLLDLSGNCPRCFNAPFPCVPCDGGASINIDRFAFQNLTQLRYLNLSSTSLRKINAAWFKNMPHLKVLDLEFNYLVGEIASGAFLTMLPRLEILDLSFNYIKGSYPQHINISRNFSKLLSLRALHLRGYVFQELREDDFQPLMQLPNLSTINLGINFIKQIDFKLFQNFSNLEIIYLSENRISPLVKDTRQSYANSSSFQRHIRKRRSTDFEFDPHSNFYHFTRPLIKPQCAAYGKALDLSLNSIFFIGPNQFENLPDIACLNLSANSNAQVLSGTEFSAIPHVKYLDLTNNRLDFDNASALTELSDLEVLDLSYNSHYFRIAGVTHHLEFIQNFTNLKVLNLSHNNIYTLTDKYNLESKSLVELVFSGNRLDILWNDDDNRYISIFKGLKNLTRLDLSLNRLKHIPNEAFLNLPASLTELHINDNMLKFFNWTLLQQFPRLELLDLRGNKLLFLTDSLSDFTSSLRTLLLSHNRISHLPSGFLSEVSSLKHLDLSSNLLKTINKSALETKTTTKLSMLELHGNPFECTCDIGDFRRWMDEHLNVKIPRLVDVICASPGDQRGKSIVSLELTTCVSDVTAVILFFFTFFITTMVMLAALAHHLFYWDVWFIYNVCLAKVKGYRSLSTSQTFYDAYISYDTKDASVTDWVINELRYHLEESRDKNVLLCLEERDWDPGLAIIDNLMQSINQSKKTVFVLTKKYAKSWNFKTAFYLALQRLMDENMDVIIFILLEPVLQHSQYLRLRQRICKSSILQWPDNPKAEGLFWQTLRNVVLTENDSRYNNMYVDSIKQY
Briefly: Agonistic activity on human TLR8 in HEK-Blue hTLR8 cells (QUANTI-Blue). It counts as cell-based. Conditions: 24 h incubation, OD650, read-out: hTLR 8 EC50.

A further data set has as its target T2, hTLR7 (Homo sapiens, UniProt Q9NYK1).
T2 construct: expressed in transfected cells; host or cells: HEK-Blue hTLR7 cells
T2 sequence (Q9NYK1 27-1049): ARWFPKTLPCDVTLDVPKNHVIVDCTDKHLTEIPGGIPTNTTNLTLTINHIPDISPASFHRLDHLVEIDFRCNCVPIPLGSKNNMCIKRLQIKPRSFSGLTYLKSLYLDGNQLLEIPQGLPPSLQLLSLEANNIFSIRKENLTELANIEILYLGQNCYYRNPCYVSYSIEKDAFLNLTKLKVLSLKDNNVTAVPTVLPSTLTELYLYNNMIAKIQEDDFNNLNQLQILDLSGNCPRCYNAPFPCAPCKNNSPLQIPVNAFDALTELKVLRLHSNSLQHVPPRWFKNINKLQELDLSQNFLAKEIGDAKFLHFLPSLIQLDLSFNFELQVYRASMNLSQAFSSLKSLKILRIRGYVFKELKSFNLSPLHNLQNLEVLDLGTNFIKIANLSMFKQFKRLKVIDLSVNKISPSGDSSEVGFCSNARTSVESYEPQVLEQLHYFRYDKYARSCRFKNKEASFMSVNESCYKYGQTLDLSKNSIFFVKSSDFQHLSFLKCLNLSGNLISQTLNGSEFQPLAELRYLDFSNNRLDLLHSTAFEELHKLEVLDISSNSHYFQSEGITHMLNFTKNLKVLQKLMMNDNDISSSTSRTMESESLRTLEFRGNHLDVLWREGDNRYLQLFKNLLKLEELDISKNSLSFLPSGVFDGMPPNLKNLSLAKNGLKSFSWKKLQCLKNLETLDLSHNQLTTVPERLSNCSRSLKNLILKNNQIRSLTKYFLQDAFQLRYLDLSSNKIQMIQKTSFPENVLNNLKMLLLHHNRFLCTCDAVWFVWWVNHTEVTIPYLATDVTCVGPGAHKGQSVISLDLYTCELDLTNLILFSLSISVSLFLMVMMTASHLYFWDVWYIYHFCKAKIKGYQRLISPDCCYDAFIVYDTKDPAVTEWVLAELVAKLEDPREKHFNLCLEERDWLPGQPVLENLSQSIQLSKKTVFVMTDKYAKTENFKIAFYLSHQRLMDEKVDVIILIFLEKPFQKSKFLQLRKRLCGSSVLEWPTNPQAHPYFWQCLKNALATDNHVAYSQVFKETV
The experiment in a line: Agonistic activity on human TLR7 in HEK-Blue hTLR7 cells (QUANTI-Blue). It counts as cell-based. The conditions noted are these: 24 h incubation, OD650, read-out: hTLR 7 EC50.

The next data set has as its target T3, CYP1A2 (Homo sapiens, UniProt P05177).
T3 construct: from tissue; host or cells: human liver microsomes
T3 sequence (P05177 1-516): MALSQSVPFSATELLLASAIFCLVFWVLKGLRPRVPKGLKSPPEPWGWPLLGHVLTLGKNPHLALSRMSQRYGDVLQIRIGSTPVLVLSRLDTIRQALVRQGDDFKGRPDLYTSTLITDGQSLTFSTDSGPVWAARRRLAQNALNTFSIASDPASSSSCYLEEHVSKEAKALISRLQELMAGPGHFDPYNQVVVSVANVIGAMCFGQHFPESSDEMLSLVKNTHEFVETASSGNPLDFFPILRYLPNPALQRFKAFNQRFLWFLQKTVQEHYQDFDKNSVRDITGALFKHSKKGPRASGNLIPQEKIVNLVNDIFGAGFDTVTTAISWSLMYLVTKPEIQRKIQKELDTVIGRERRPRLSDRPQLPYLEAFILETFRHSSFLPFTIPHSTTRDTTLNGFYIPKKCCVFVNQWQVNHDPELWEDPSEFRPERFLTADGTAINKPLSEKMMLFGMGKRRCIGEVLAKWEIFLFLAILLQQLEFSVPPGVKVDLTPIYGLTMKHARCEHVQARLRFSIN
Briefly: Inhibition of human liver microsomal CYP1A2. Conditions: human liver microsomes, 10 μM test substance; read-out: Relative inhibition rate (%) CYP1A2. It counts as in vitro ADME. Here is the method: (§1) Experimental purpose: The inhibitory effects of the test compounds on the major metabolizing enzymes CYP1A2, CYP2C19, CYP2D6 and CYP3A4 in microsomes were evaluated using the human liver microsomal system. Experimental method: The test substance was incubated with a suspension of human liver microsomes containing cytochrome P450 enzymes CYP1A2, CYP2C19, CYP2D6 and CYP3A4 at a concentration of 10 μM in the final incubation system. The known substrates were metabolized by the corresponding single enzymes to generate specific metabolites, and the metabolites were determined by UPLC-MS/MS method. The relative inhibition rate (%) was calculated by the percentage reduction of metabolite production by the test compound and solvent DMSO in the same time period. N is the concentration value of the probe substrate metabolite and it is assumed that the […] with or without inhibitor at 0 min is 0. N+inh is the metabolite concentration in the group with inhibitor, and Nveh is the metabolite concentration in the group without inhibitor. The results of the inhibition test of the compounds of the present invention on human liver microsomal CYP enzymes are shown in Table C.
In general terms: Liver microsomes are vesicles of endoplasmic reticulum, rich in cytochrome P450 enzymes.

The next data set concerns the target T4, CYP2C19 (Homo sapiens, UniProt P33261).
T4 construct: from tissue; host or cells: human liver microsomes
The experiment in a line: Inhibition of human liver microsomal CYP2C19. It counts as in vitro ADME. Conditions: human liver microsomes, 10 μM test substance; read-out: Relative inhibition rate (%) CYP2C19. Here is the method: as §1

The target of the next data set is T5, CYP2D6 (Homo sapiens, UniProt P10635).
T5 construct: from tissue; host or cells: human liver microsomes
T5 sequence (P10635 whole entry): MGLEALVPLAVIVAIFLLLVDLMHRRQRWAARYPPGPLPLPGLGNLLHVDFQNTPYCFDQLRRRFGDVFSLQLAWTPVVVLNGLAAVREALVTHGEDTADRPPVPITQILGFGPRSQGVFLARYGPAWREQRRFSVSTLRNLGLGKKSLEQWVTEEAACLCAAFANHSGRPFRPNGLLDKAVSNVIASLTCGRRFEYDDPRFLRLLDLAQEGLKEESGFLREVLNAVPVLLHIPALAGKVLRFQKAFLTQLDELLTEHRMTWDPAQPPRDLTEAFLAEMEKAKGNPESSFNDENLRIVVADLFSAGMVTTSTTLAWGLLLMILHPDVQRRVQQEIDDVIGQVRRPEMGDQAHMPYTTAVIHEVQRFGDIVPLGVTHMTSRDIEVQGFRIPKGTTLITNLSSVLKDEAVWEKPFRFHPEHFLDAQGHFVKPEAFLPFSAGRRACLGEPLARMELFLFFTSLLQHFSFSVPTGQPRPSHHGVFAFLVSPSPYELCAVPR
Briefly: Inhibition of human liver microsomal CYP2D6. It counts as in vitro ADME. The conditions noted are these: human liver microsomes, 10 μM test substance; read-out: Relative inhibition rate (%) CYP2D6. Here is the method: as §1

The target of the next data set is T6, CYP3A4 (Homo sapiens, UniProt P08684).
T6 construct: from tissue; host or cells: human liver microsomes
T6 sequence (P08684 whole entry): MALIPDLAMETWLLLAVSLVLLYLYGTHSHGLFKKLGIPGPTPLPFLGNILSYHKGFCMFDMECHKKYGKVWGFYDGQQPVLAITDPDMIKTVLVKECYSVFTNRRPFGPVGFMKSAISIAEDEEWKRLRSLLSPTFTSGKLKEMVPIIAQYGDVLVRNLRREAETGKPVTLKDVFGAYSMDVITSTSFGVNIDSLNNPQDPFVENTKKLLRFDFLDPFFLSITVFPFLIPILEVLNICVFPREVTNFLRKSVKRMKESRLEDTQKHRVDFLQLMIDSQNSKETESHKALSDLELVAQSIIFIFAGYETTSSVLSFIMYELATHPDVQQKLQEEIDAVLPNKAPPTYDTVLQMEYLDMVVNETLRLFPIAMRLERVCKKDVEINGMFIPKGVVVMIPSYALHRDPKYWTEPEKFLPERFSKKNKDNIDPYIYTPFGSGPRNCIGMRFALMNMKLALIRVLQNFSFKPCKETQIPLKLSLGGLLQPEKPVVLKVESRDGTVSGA
The experiment in a line: Inhibition of human liver microsomal CYP3A4. It counts as in vitro ADME. Conditions: human liver microsomes, 10 μM test substance. Here is the method: as §1

Data set [1] in a line: Cell toxicity (Celltiter-Glo) in HEK-Blue hTLR8 cells. Conditions: human.
Procedure: (§2) Purpose: HEK-Blue™ hTLR7 and HEK-Blue™ hTLR8 cells were used to detect the agonist and cytotoxic activities of compounds against hTLR7 and hTLR8.
(§3) The experimental steps were as shown below: • 1) Preparation of compound: The compound was prepared into a 20 mM stock solution with DMSO, and then the stock solution was diluted 3-fold in a gradient and added to a 96-well plate, for a total of 10 concentrations, with duplicate wells for each concentration. For negative control wells, 0.5 μL DMSO was added to each well. The final DMSO concentration was 0.5%. • 2) HEK-Blue™ hTLR7 or HEK-Blue™ hTLR8 cells were suspended in culture medium and then seeded into 96-well plates containing compounds at a cell count of 50,000 per well. The compounds and cells were incubated for 24 h at 37° C., 5% Co2. • 3) QUANTI-Blue was used for the detection solution: to a mixture of 1 mL of QB reagent and 1 mL of QB buffer was added 98 mL of sterile water, the mixture was mixed and dissolved, and then placed at room temperature for 10 min. • 4) Activity test of the compound: 20 μL of the culture supernatant in step 2) was added to each well of a 96-well plate containing 180 μL of QUANTI-Blue detection solution. After incubation at 37° C. for 1 h, the absorbance at 650 nm (OD650) was detected using a multifunctional microplate reader Flextation III. • 5) Detection of cell activity: The chemiluminescent signal (RLU) was detected using the multifunctional microplate reader Flextation III according to the instructions of Celltiter-Glo. • 6) Data analysis
Detection of cell activity: The calculation formula for cell activity % is as follows.
The cell activity % values were analyzed using GraphPad Prism software, and the compound dose-effect curves were fitted to calculate the CC50 values of the compounds.
Cell activity %=RLU compound/RLU DMSO Control*100%
Setting [2] is: probe Midazolam, substrate Midazolam, read-out: Relative inhibition rate (%) CYP3A4 (Midazolam).
Where [3] appears, read: probe Testosterone, substrate Testosterone, read-out: Relative inhibition rate (%) CYP3A4 (Testosterone).

Molecules are shown by their SMILES. Read-outs that look alike come from different tables or passages of the source.

T4 sequence (P33261 whole entry): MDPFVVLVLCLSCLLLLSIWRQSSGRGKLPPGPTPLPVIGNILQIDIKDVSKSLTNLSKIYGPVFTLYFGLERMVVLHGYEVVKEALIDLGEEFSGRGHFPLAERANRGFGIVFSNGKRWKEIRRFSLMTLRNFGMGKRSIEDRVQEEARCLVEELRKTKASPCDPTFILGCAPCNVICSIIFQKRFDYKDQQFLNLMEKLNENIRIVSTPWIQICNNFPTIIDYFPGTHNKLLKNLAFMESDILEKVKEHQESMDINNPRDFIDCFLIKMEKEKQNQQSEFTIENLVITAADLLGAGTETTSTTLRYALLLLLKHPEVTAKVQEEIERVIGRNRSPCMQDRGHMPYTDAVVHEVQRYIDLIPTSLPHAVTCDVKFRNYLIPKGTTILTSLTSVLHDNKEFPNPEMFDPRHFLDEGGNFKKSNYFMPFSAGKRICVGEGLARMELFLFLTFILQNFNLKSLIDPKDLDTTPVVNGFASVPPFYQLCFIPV
Procedure for hTLR7: as §2, §3
Activity of compounds: OD650 values were analyzed using GraphPad Prism software, and the compound dose-effect curves were fitted to calculate the EC50 values of the compounds.

Consider `CCCC[C@](C)(CO)Nc1nc(N)nc2cc(-c3cc(=O)[nH]cc3COC)cnc12` [Example 51, (R)-4-(2-Amino-4-((1-hydroxy-2-methylhexan-2-yl)amino)pyrido[3,2-d]pyrimidin-7-yl)-5-(methoxymethyl)pyridin-2(1H)-one], for which the results for the EC50 at hTLR8 and on hTLR7 were 0.012 µM and above 100 µM, respectively. The inhibition at 10 µM on CYP1A2 was found to be 11.1%; on CYP2C19, 22.1%; at CYP2D6, 9.6%; at CYP3A4 (setting [2]), 7.4%; on CYP3A4 (setting [3]) it was 34.1%. Further, in data set [1], the CC50 at 24 h is above 100 µM.

`CCCC[C@](C)(CO)Nc1nc(N)nc2cc(-c3cc(=O)[nH]cc3CN(C)C)cnc12` [Example 50, (R)-4-(2-Amino-4-((1-hydroxy-2-methylhexan-2-yl)amino)pyrido[3,2-d]pyrimidin-7-yl)-5-((dimethylamino)methyl)pyridin-2(1H)-one]: the EC50 on hTLR8 was 0.016 µM; on hTLR7 it was above 100 µM. The inhibition at 10 µM on CYP1A2 is 10.7%; at CYP2C19, 11.4%; on CYP2D6, 9.7%; at CYP3A4 (setting [2]), 13.7%; at CYP3A4 (setting [3]) it was 11.6%. Besides, in data set [1], the CC50 at 24 h is above 100 µM.

For the molecule `CCCC[C@](C)(CO)Nc1nc(N)nc2cc(-c3cc(=O)n(C)cc3CN(C)CCOC)ccc12` [Example 55, (R)-4-(2-Amino-4-((1-hydroxy-2-methylhexan-2-yl)amino)quinazolin-7-yl)-5-(((2-methoxyethyl)(methyl)amino)methyl)-1-methylpyridin-2(1H)-one], the figures for the EC50 at hTLR8 and at hTLR7 were 0.039 µM and above 100 µM, respectively. Also, the inhibition at 10 µM at CYP1A2 was 9.1%; on CYP2C19, 17%; on CYP2D6, 19.1%; at CYP3A4 (setting [2]) it was 38.6%; on CYP3A4 (setting [3]) it was 17.1%. The same molecule registered a CC50 at 24 h in data set [1] above 100 µM.

As for `CCCCN(C)Cc1c[nH]c(=O)cc1-c1ccc2c(N[C@@](C)(CO)CCCC)nc(N)nc2c1` [Example 36, (R)-4-(2-Amino-4-((1-hydroxy-2-methylhexan-2-yl)amino)quinazolin-7-yl)-5-((butyl(methyl)amino)methyl)pyridin-2(1H)-one], the figures for the EC50 on hTLR8 and at hTLR7 were 0.066 µM and above 100 µM, respectively. Further, the inhibition at 10 µM on CYP1A2 was 9%; at CYP2C19 it was 7%; at CYP2D6 it was 20.1%; at CYP3A4 (setting [2]), 25.9%; at CYP3A4 (setting [3]), 7.5%. The same molecule displayed a CC50 at 24 h in data set [1] above 100 µM.

Turning to `CCCC[C@](C)(CO)Nc1nc(N)nc2cc(-c3cc(=O)n(C)cc3CN(C)CCO)ccc12` [Example 64, (R)-4-(2-Amino-4-((1-hydroxy-2-methylhexan-2-yl)amino)quinazolin-7-yl)-5-(((2-hydroxyethyl)(methyl)amino)methyl)-1-methylpyridin-2(1H)-one], the EC50 at hTLR8 was 0.077 µM; at hTLR7 it was above 100 µM. For the same molecule, the inhibition at 10 µM at CYP1A2 is 8.9%; at CYP2C19, 2.4%; on CYP2D6 it was 13.8%; at CYP3A4 (setting [2]), 17.6%; at CYP3A4 (setting [3]) it was 8.8%. The same molecule had a CC50 at 24 h in data set [1] above 100 µM.

For the molecule `CCCCN(C)Cc1cn(C)c(=O)cc1-c1ccc2c(N[C@@](C)(CO)CCCC)nc(N)nc2c1` [Example 56, (R)-4-(2-Amino-4-((1-hydroxy-2-methylhexan-2-yl)amino)quinazolin-7-yl)-5-((butyl(methyl)amino)methyl)-1-methylpyridin-2(1H)-one], the EC50 at hTLR8 came out at 0.025 µM; at hTLR7, 11.1 µM. For the same molecule, the inhibition at 10 µM on CYP1A2 turned out to be 10.7%; on CYP2C19, 10.4%; on CYP2D6, 31.7%; at CYP3A4 (setting [2]), 33.6%; on CYP3A4 (setting [3]), 15.6%.

Turning to `C=CCCN(C)Cc1cn(C)c(=O)cc1-c1ccc2c(N[C@](C)(CCCC)CNC(=O)c3cnn(C)c3)nc(N)nc2c1` [Example 46], the figures for the EC50 on hTLR8 and on hTLR7 were 0.569 µM and above 100 µM, respectively. Moreover, in data set [1], the CC50 at 24 h is above 100 µM.

As for `CCCC[C@](C)(CO)Nc1nc(N)nc2cc(-c3cc(=O)[nH]cc3CN(C)C)ccc12` [Example 67, (R)-4-(2-Amino-4-((1-hydroxy-2-methylhexan-2-yl)amino)quinazolin-7-yl)-5-((dimethylamino)methyl)pyridin-2(1H)-one], the half-maximal effective concentration (EC50) is 0.056 µM on hTLR8 and above 100 µM on hTLR7. The CC50 at 24 h in data set [1] was above 100 µM.
